What was measured:
Human β2 adrenoceptor = Human β2 adrenoceptor (Homo sapiens, UniProt P07550); conditions: read-out: B2 binding affinity
Human M3 receptor = Human M3 receptor (Homo sapiens, UniProt P20309); conditions: read-out: M3 binding affinity
Chain of Human M3 receptor (P20309 whole entry): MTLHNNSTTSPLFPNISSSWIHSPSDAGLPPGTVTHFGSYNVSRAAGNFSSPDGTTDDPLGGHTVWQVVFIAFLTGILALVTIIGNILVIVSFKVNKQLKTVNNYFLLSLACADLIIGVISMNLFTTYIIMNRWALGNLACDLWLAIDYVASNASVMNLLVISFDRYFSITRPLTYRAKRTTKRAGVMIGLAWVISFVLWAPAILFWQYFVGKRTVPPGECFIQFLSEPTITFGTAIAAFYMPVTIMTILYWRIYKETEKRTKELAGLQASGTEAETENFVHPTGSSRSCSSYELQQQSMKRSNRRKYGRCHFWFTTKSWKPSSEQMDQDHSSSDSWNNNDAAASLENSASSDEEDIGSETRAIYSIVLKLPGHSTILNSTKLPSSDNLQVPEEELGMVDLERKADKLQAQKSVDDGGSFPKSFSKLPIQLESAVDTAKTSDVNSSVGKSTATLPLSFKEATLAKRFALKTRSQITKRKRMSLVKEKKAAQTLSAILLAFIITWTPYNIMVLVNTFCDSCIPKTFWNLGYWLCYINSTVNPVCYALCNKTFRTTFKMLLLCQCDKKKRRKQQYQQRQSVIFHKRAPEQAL

Chain of Human β2 adrenoceptor (P07550 whole entry): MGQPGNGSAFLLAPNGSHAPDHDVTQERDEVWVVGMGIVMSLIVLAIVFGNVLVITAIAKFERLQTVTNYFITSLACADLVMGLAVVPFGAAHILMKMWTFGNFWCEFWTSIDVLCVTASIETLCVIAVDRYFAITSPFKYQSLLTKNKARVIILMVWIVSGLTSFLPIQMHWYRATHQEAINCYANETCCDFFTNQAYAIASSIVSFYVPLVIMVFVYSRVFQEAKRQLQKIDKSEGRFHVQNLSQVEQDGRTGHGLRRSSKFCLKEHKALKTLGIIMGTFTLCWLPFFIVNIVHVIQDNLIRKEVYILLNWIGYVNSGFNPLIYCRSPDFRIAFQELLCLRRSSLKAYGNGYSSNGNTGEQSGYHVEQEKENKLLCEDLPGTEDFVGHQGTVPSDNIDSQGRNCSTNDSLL

Structure (SMILES)	IC50 (Human β2 adrenoceptor)	IC50 (Human M3 receptor)
O=C(NC1CN(C(=O)COc2cccc([C@](O)(C(=O)OCC3CCN(Cc4ccccc4)CC3)c3ccccc3)c2)C1)c1ccc(CCNC[C@H](O)c2ccc(O)c3[nH]c(=O)ccc23)cc1 [Compound 102, (1-benzylpiperidin-4-yl)methyl (S)-2-hydroxy-2-(3-(2-(3-(4-(2-(((R)-2-hydroxy-2-(8-hydroxy-2-oxo-1,2-dihydroquinolin-5-yl)ethyl)amino)ethyl)benzamido)azetidin-1-yl)-2-oxoethoxy)phenyl)-2-phenylacetate]	< 0.3 nM	< 0.3 nM
COc1cc(C(=O)N2CCC3(CCN(C(=O)COc4cccc([C@](O)(C(=O)OCC5CCN(Cc6ccccc6)CC5)c5ccccc5)c4)CC3)CC2)ccc1CNC[C@H](O)c1ccc(O)c2[nH]c(=O)ccc12 [Compound 79, (1-benzylpiperidin-4-yl)methyl (S)-2-hydroxy-2-(3-(2-(9-(4-((((R)-2-hydroxy-2-(8-hydroxy-2-oxo-1,2-dihydroquinolin-5-yl)ethyl)amino)methyl)-3-methoxybenzoyl)-3,9-diazaspiro[5.5]undecan-3-yl)-2-oxoethoxy)phenyl)-2-phenylacetate]	< 0.3 nM	< 0.3 nM
O=C(NCc1ccc(COc2cccc([C@](O)(C(=O)OCC3CCN(Cc4ccccc4)CC3)c3ccccc3)c2)cc1)c1ccc(CCNC[C@H](O)c2ccc(O)c3[nH]c(=O)ccc23)cc1 [Compound 42C, (1-benzylpiperidin-4-yl)methyl (S)-2-hydroxy-2-(3-((4-((4-(2-(((R)-2-hydroxy-2-(8-hydroxy-2-oxo-1,2-dihydroquinolin-5-yl)ethyl)amino)ethyl)benzamido)methyl)benzyl)oxy)phenyl)-2-phenylacetate]	< 0.3 nM	0.3 to 3 nM
COc1c(CNC[C@H](O)c2ccc(O)c3[nH]c(=O)ccc23)ccc(C(=O)N[C@H]2C[C@H](NC(=O)COc3cccc([C@](O)(C(=O)OCC4CCN(Cc5ccccc5)CC4)c4ccccc4)c3)C2)c1F [Compound 139, (1-benzylpiperidin-4-yl)methyl (S)-2-(3-(2-(((1R,3S)-3-(2-fluoro-4-((((R)-2-hydroxy-2-(8-hydroxy-2-oxo-1,2-dihydroquinolin-5-yl)ethyl)amino)methyl)-3-methoxybenzamido)cyclobutyl)amino)-2-oxoethoxy)phenyl)-2-hydroxy-2-phenylacetate]	< 0.3 nM	0.3 to 3 nM
O=C(NCCCOc1cccc([C@](O)(C(=O)OCC2CCN(Cc3ccccc3)CC2)c2ccccc2)c1)c1ccc(CNC[C@H](O)c2ccc(O)c3[nH]c(=O)ccc23)cc1 [Compound 32, (S)-(1-benzylpiperidin-4-yl)methyl 2-hydroxy-2-(3-(3-(4-((((R)-2-hydroxy-2-(8-hydroxy-2-oxo-1,2-dihydroquinolin-5-yl)ethyl)amino)methyl)benzamido)propoxy)phenyl)-2-phenylacetate]	< 0.3 nM	0.3 to 3 nM
O=C(COc1cccc([C@](O)(C(=O)OCC2CCN(Cc3ccccc3)CC2)c2ccccc2)c1)N1CC2(CCCN(C(=O)c3ccc(CCNC[C@H](O)c4ccc(O)c5[nH]c(=O)ccc45)cc3)C2)C1 [Compound 98, (1-benzylpiperidin-4-yl)methyl (S)-2-hydroxy-2-(3-(2-(6-(4-(2-(((R)-2-hydroxy-2-(8-hydroxy-2-oxo-1,2-dihydroquinolin-5-yl)ethyl)amino)ethyl)benzoyl)-2,6-diazaspiro[3.5]nonan-2-yl)-2-oxoethoxy)phenyl)-2-phenylacetate]	0.3 to 3 nM	0.3 to 3 nM
COc1cc(C(=O)NCCCOc2cccc([C@](O)(C(=O)OCC3CCN(Cc4ccccc4)CC3)c3ccccc3)c2)ccc1CNC[C@H](O)c1ccc(O)c2[nH]c(=O)ccc12 [Compound 32A, (S)-(1-benzylpiperidin-4-yl)methyl 2-hydroxy-2-(3-(3-(4-((((R)-2-hydroxy-2-(8-hydroxy-2-oxo-1,2-dihydroquinolin-5-yl)ethyl)amino)methyl)-3-methoxybenzamido)propoxy)phenyl)-2-phenylacetate]	< 0.3 nM	0.3 to 3 nM
COc1cc(CNC[C@H](O)c2ccc(O)c3[nH]c(=O)ccc23)ccc1C(=O)NCCCOc1cccc([C@](O)(C(=O)OCC2CCN(Cc3ccccc3)CC2)c2ccccc2)c1 [Compound 32B, (S)-(1-benzylpiperidin-4-yl)methyl 2-hydroxy-2-(3-(3-(4-((((R)-2-hydroxy-2-(8-hydroxy-2-oxo-1,2-dihydroquinolin-5-yl)ethyl)amino)methyl)-2-methoxybenzamido)propoxy)phenyl)-2-phenylacetate]	< 0.3 nM	< 0.3 nM
O=C(NCCCNC[C@H](O)c1ccc(O)c2[nH]c(=O)ccc12)c1ccc(COc2cccc([C@](O)(C(=O)OCC3CCN(Cc4ccccc4)CC3)c3ccccc3)c2)cc1 [Compound 43, (S)-(1-Benzylpiperidin-4-yl)methyl 2-hydroxy-2-(3-((4-((3-(((R)-2-hydroxy-2-(8-hydroxy-2-oxo-1,2-dihydroquinolin-5-yl)ethyl)amino)propyl)carbamoyl)benzyl)oxy)phenyl)-2-phenylacetate]	< 0.3 nM	< 0.3 nM
CN(CCNC(=O)c1ccc(CNC[C@H](O)c2ccc(O)c3[nH]c(=O)ccc23)cc1)C(=O)COc1cccc([C@](O)(C(=O)OCC2CCN(Cc3ccccc3)CC2)c2ccccc2)c1 [Compound 60, (1-benzylpiperidin-4-yl)methyl (S)-2-hydroxy-2-(3-(2-((2-(4-((((R)-2-hydroxy-2-(8-hydroxy-2-oxo-1,2-dihydroquinolin-5-yl)ethyl)amino)methyl)benzamido)ethyl)(methyl)amino)-2-oxoethoxy)phenyl)-2-phenylacetate]	0.3 to 3 nM	0.3 to 3 nM
COc1cc(C(=O)N[C@H]2C[C@H](NC(=O)c3ccc(COc4cccc([C@](O)(C(=O)OCC5CCN(Cc6ccccc6)CC5)c5ccccc5)c4)cc3)C2)ccc1CNC[C@H](O)c1ccc(O)c2[nH]c(=O)ccc12 [Compound 124, (1-benzylpiperidin-4-yl)methyl (S)-2-hydroxy-2-(3-((4-(((1R,3S)-3-(4-((((R)-2-hydroxy-2-(8-hydroxy-2-oxo-1,2-dihydroquinolin-5-yl)ethyl)amino)methyl)-3-methoxybenzamido)cyclobutyl)carbamoyl)benzyl)oxy)phenyl)-2-phenylacetate]	0.3 to 3 nM	0.3 to 3 nM
O=C(NCCCOc1cccc([C@](O)(C(=O)OCC2CCN(Cc3ccccc3)CC2)c2ccccc2)c1)c1ccc(CNC[C@H](O)c2ccc(O)c3[nH]c(=O)ccc23)c(F)c1F [Compound 32L, (S)-(1-benzylpiperidin-4-yl)methyl 2-(3-(3-(2,3-difluoro-4-((((R)-2-hydroxy-2-(8-hydroxy-2-oxo-1,2-dihydroquinolin-5-yl)ethyl)amino)methyl)benzamido)propoxy)phenyl)-2-hydroxy-2-phenylacetate]	> 3 nM	0.3 to 3 nM
O=C(NCc1ccc(COc2ccc(C(O)(C(=O)OCC3CCN(Cc4ccccc4)CC3)c3ccccc3)cc2)cc1)c1ccc(CNC[C@H](O)c2ccc(O)c3[nH]c(=O)ccc23)cc1 (stereo partly drawn) [Compound 53, (1-benzylpiperidin-4-yl)methyl 2-hydroxy-2-(4-((4-((4-((((R)-2-hydroxy-2-(8-hydroxy-2-oxo-1,2-dihydroquinolin-5-yl)ethyl)amino)methyl)benzamido)methyl)-benzyl)oxy)phenyl)-2-phenylacetate diformate]	> 3 nM	> 3 nM
O=C(COc1cccc([C@](O)(C(=O)OCC2CCN(Cc3ccccc3)CC2)c2ccccc2)c1)N1CCC(C(=O)N2CCC(CNC[C@H](O)c3ccc(O)c4[nH]c(=O)ccc34)CC2)CC1 [Compound 148, (1-benzylpiperidin-4-yl)methyl (S)-2-hydroxy-2-(3-(2-(4-(4-((((R)-2-hydroxy-2-(8-hydroxy-2-oxo-1,2-dihydroquinolin-5-yl)ethyl)amino)methyl)piperidine-1-carbonyl)piperidin-1-yl)-2-oxoethoxy)phenyl)-2-phenylacetate]	< 0.3 nM	0.3 to 3 nM
O=C(COc1cccc([C@](O)(C(=O)OCC2CCN(Cc3ccccc3)CC2)c2ccccc2)c1)N1CCN(C(=O)c2ccc(CNC[C@H](O)c3ccc(O)c4[nH]c(=O)ccc34)cc2)CC1 [Compound 58, (1-benzylpiperidin-4-yl)methyl (S)-2-hydroxy-2-(3-(2-(4-(4-((((R)-2-hydroxy-2-(8-hydroxy-2-oxo-1,2-dihydroquinolin-5-yl)ethyl)amino)methyl)benzoyl)piperazin-1-yl)-2-oxoethoxy)phenyl)-2-phenylacetate]	0.3 to 3 nM	0.3 to 3 nM
O=C(N[C@@H]1CCCN(C(=O)COc2cccc([C@](O)(C(=O)OCC3CCN(Cc4ccccc4)CC3)c3ccccc3)c2)C1)c1ccc(CNC[C@H](O)c2ccc(O)c3[nH]c(=O)ccc23)cc1 [Compound 75, (1-benzylpiperidin-4-yl)methyl (S)-2-hydroxy-2-(3-(2-((R)-3-(4-((((R)-2-hydroxy-2-(8-hydroxy-2-oxo-1,2-dihydroquinolin-5-yl)ethyl)amino)methyl)benzamido)piperidin-1-yl)-2-oxoethoxy)phenyl)-2-phenylacetate]	> 3 nM	0.3 to 3 nM
COc1cc(C(=O)NCCCOc2cccc([C@](O)(C(=O)OCC3CCN(Cc4ccccc4)CC3)c3ccccc3)c2)c(Cl)cc1CNC[C@H](O)c1ccc(O)c2[nH]c(=O)ccc12 [Compound 32J, (S)-(1-benzylpiperidin-4-yl)methyl 2-(3-(3-(2-chloro-4-((((R)-2-hydroxy-2-(8-hydroxy-2-oxo-1,2-dihydroquinolin-5-yl)ethyl)amino)methyl)-5-methoxybenzamido)propoxy)phenyl)-2-hydroxy-2-phenylacetate]	< 0.3 nM	0.3 to 3 nM
O=C(COc1cccc([C@](O)(C(=O)OCC2CCN(Cc3ccccc3)CC2)c2ccccc2)c1)N[C@H]1CC[C@H](C(=O)N2CCC(CNC[C@H](O)c3ccc(O)c4[nH]c(=O)ccc34)CC2)CC1 [Compound 149, (1-benzylpiperidin-4-yl)methyl (S)-2-hydroxy-2-(3-(2-(((1R,4S)-4-(4-((((R)-2-hydroxy-2-(8-hydroxy-2-oxo-1,2-dihydroquinolin-5-yl)ethyl)amino)methyl)piperidine-1-carbonyl)cyclohexyl)amino)-2-oxoethoxy)phenyl)-2-phenylacetate]	0.3 to 3 nM	< 0.3 nM
